Data published in PubChem BioAssay AID2060624 (Molecular Pharmacology Branch, DTP, NCI, 2025).

System: 217524-143-R1-J4-PDC spheroids with HUVEC/MSC, viability
Experiment: Anticancer human tumor 217524-143-R1-J4-PDC patient-derived pancreatic carcinoma cell line growth inhibition [CLK]
Conditions: for IC50: curve of first compound; for viability, T/C: stronger effect = lower value
Summary of the method: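 Patient-derived tumor cells grown as complex spheroids with HUVEC endothelial cells and mesenchymal stem cells, treated with drug combinations. Concentrations descend in half-log steps from near clinical Cmax, or from 10 microM if Cmax unknown.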

[1] = second compound 0.0316 µM, first compound 0.0316 µM
[2] = second compound 0.0316 µM, first compound 0.1 µM
[3] = second compound 0.0316 µM, first compound 0.316 µM
[4] = second compound 0.0316 µM, first compound 1 µM
[5] = second compound 0.0316 µM, first compound 3.16 µM
[6] = second compound 0.0316 µM, first compound 10 µM
[7] = second compound 0.1 µM, first compound 0.0316 µM
[8] = second compound 0.1 µM, first compound 0.1 µM
[9] = second compound 0.1 µM, first compound 0.316 µM
[10] = second compound 0.1 µM, first compound 1 µM
[11] = second compound 0.1 µM, first compound 3.16 µM
[12] = second compound 0.1 µM, first compound 10 µM
[13] = second compound 0.316 µM, first compound 0.0316 µM
[14] = second compound 0.316 µM, first compound 0.1 µM
[15] = second compound 0.316 µM, first compound 0.316 µM
[16] = second compound 0.316 µM, first compound 1 µM
[17] = second compound 0.316 µM, first compound 3.16 µM
[18] = second compound 0.316 µM, first compound 10 µM
[19] = second compound 1 µM, first compound 0.0316 µM
[20] = second compound 1 µM, first compound 0.1 µM
[21] = second compound 1 µM, first compound 0.316 µM
[22] = second compound 1 µM, first compound 1 µM
[23] = second compound 1 µM, first compound 3.16 µM
[24] = second compound 1 µM, first compound 10 µM
[25] = second compound 3.16 µM, first compound 0.0316 µM
[26] = second compound 3.16 µM, first compound 0.1 µM
[27] = second compound 3.16 µM, first compound 0.316 µM
[28] = second compound 3.16 µM, first compound 1 µM
[29] = second compound 3.16 µM, first compound 3.16 µM
[30] = second compound 3.16 µM, first compound 10 µM
[31] = second compound 10 µM, first compound 0.0316 µM
[32] = second compound 10 µM, first compound 0.1 µM
[33] = second compound 10 µM, first compound 0.316 µM
[34] = second compound 10 µM, first compound 1 µM
[35] = second compound 10 µM, first compound 3.16 µM
[36] = second compound 10 µM, first compound 10 µM
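Also: spheroids exposed to agents for seven days before reading.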
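For viability, T/C in this document: 100% = DMSO vehicle control viability.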

CC(C)CC(NC(=O)C(Cc1ccccc1)NC(=O)c1cnccn1)B(O)O (stereo unspecified) + CN1CCN(c2cc(C(=O)Nc3cc4cc(-c5cnn(C)c5)ccc4cn3)ccn2)CC1
IC50 (second compound 0.0316 µM): 3.03 nM
IC50 (second compound 0.1 µM): 2.29 nM
IC50 (second compound 0.316 µM): < 0.949 nM
IC50 (second compound 1 µM): < 0.949 nM
IC50 (second compound 3.16 µM): < 0.949 nM
IC50 (second compound 10 µM): < 0.949 nM
viability, T/C (second compound 0.0316 µM, first compound 0.000949 µM): 89.7%
viability, T/C (second compound 0.0316 µM, first compound 0.003 µM): 49.9%
viability, T/C (second compound 0.0316 µM, first compound 0.00949 µM): 22.4%
viability, T/C (second compound 0.0316 µM, first compound 0.03 µM): 6.55%
viability, T/C (second compound 0.0316 µM, first compound 0.0949 µM): 5.49%
viability, T/C (second compound 0.0316 µM, first compound 0.3 µM): 2.12%
viability, T/C (second compound 0.1 µM, first compound 0.000949 µM): 58.3%
viability, T/C (second compound 0.1 µM, first compound 0.003 µM): 47.5%
viability, T/C (second compound 0.1 µM, first compound 0.00949 µM): 14.4%
viability, T/C (second compound 0.1 µM, first compound 0.03 µM): 5.38%
viability, T/C (second compound 0.1 µM, first compound 0.0949 µM): 3.86%
viability, T/C (second compound 0.1 µM, first compound 0.3 µM): 2.25%
viability, T/C (second compound 0.316 µM, first compound 0.000949 µM): 25%
viability, T/C (second compound 0.316 µM, first compound 0.003 µM): 24%
viability, T/C (second compound 0.316 µM, first compound 0.00949 µM): 3.44%
viability, T/C (second compound 0.316 µM, first compound 0.03 µM): 1.85%
viability, T/C (second compound 0.316 µM, first compound 0.0949 µM): 1.33%
viability, T/C (second compound 0.316 µM, first compound 0.3 µM): 0.89%
viability, T/C (second compound 1 µM, first compound 0.000949 µM): 1.64%
viability, T/C (second compound 1 µM, first compound 0.003 µM): 0.62%
viability, T/C (second compound 1 µM, first compound 0.00949 µM): 0.77%
viability, T/C (second compound 1 µM, first compound 0.03 µM): 0.46%
viability, T/C (second compound 1 µM, first compound 0.0949 µM): 0.4%
viability, T/C (second compound 1 µM, first compound 0.3 µM): 0.42%
viability, T/C (second compound 3.16 µM, first compound 0.000949 µM): 0.67%
viability, T/C (second compound 3.16 µM, first compound 0.003 µM): 0.98%
viability, T/C (second compound 3.16 µM, first compound 0.00949 µM): 2.38%
viability, T/C (second compound 3.16 µM, first compound 0.03 µM): 1.54%
viability, T/C (second compound 3.16 µM, first compound 0.0949 µM): 0.63%
viability, T/C (second compound 3.16 µM, first compound 0.3 µM): 0.66%
viability, T/C (second compound 10 µM, first compound 0.000949 µM): 0.3%
viability, T/C (second compound 10 µM, first compound 0.003 µM): 0.19%
viability, T/C (second compound 10 µM, first compound 0.00949 µM): 0.47%
viability, T/C (second compound 10 µM, first compound 0.03 µM): 0.32%
viability, T/C (second compound 10 µM, first compound 0.0949 µM): 0.23%
viability, T/C (second compound 10 µM, first compound 0.3 µM): 0.22%

CC1(C)CCC(CN2CCN(c3ccc(C(=O)NS(=O)(=O)c4ccc(NCC5CCOCC5)c([N+](=O)[O-])c4)c(Oc4cnc5[nH]ccc5c4)c3)CC2)=C(c2ccc(Cl)cc2)C1 + CN1CCN(c2cc(C(=O)Nc3cc4cc(-c5cnn(C)c5)ccc4cn3)ccn2)CC1
IC50 (second compound 0.0316 µM): 5020 nM
IC50 (second compound 0.1 µM): 3820 nM
IC50 (second compound 0.316 µM): < 31.6 nM
IC50 (second compound 1 µM): < 31.6 nM
IC50 (second compound 3.16 µM): < 31.6 nM
IC50 (second compound 10 µM): < 31.6 nM
viability, T/C [1]: 83.2%
viability, T/C [2]: 68.9%
viability, T/C [3]: 89.4%
viability, T/C [4]: 88.4%
viability, T/C [5]: 77.1%
viability, T/C [6]: 9.4%
viability, T/C [7]: 55.5%
viability, T/C [8]: 55%
viability, T/C [9]: 55.1%
viability, T/C [10]: 65.7%
viability, T/C [11]: 60.2%
viability, T/C [12]: 7.83%
viability, T/C [13]: 19.1%
viability, T/C [14]: 20.4%
viability, T/C [15]: 21.5%
viability, T/C [16]: 22.8%
viability, T/C [17]: 20.9%
viability, T/C [18]: 6.29%
viability, T/C [19]: 2.02%
viability, T/C [20]: 1.96%
viability, T/C [21]: 1.65%
viability, T/C [22]: 1.7%
viability, T/C [23]: 1.3%
viability, T/C [24]: 1.35%
viability, T/C [25]: 0.59%
viability, T/C [26]: 0.61%
viability, T/C [27]: 0.76%
viability, T/C [28]: 0.45%
viability, T/C [29]: 0.49%
viability, T/C [30]: 0.25%
viability, T/C [31]: 0.16%
viability, T/C [32]: 0.16%
viability, T/C [33]: 0.19%
viability, T/C [34]: 0.26%
viability, T/C [35]: 0.24%
viability, T/C [36]: 0.17%

CC1COCCN1c1cc(C2(S(C)(=N)=O)CC2)nc(-c2ccnc3[nH]ccc23)n1 (stereo unspecified) + CN1CCN(c2cc(C(=O)Nc3cc4cc(-c5cnn(C)c5)ccc4cn3)ccn2)CC1
IC50 (second compound 0.0316 µM): 1430 nM
IC50 (second compound 0.1 µM): 342 nM
IC50 (second compound 0.316 µM): < 31.6 nM
IC50 (second compound 1 µM): < 31.6 nM
IC50 (second compound 3.16 µM): < 31.6 nM
IC50 (second compound 10 µM): < 31.6 nM
viability, T/C [1]: 93.1%
viability, T/C [2]: 79.7%
viability, T/C [3]: 63.9%
viability, T/C [4]: 66.3%
viability, T/C [5]: 32.9%
viability, T/C [6]: 18.6%
viability, T/C [7]: 56.7%
viability, T/C [8]: 67.3%
viability, T/C [9]: 43.1%
viability, T/C [10]: 42.3%
viability, T/C [11]: 29.1%
viability, T/C [12]: 16.4%
viability, T/C [13]: 22.1%
viability, T/C [14]: 19.2%
viability, T/C [15]: 17.1%
viability, T/C [16]: 16.1%
viability, T/C [17]: 12.3%
viability, T/C [18]: 11.4%
viability, T/C [19]: 1.72%
viability, T/C [20]: 1.95%
viability, T/C [21]: 2.1%
viability, T/C [22]: 1.89%
viability, T/C [23]: 1.87%
viability, T/C [24]: 1.22%
viability, T/C [25]: 0.77%
viability, T/C [26]: 0.42%
viability, T/C [27]: 0.98%
viability, T/C [28]: 0.65%
viability, T/C [29]: 0.84%
viability, T/C [30]: 1.13%
viability, T/C [31]: 0.21%
viability, T/C [32]: 0.17%
viability, T/C [33]: 0.25%
viability, T/C [34]: 0.29%
viability, T/C [35]: 0.29%
viability, T/C [36]: 0.25%
